Columns and labels:
ddY strain male mice = assay: in vivo; conditions: mouse
[1] = test system: ventricular arrhythmias induced by chloroform; assay: Antiarrhythmic activity: prevention of chloroform-induced ventricular flutter and fibrillation in mice; conditions: for ED40 / ED50 / ED20: Mus musculus, sc, 0.5 h; for ED50: read-out: ED50 (95% confidence limit); for Therapeutic index: ratio of LD50 and ED50
Method: At the time when they ceased to breathe, electrocardiogram of each animal was recorded to observe the flutter and fibrillation of the ventricle.
The abnormalities of ventriculus as observed in these animals can be prevented by previous administration of a substance showing antiarrhythmic activity. A compound of this invention, at various dosages, was subcutaneously injected to mice grouped by 29-40 heads. Thirty minutes later these mice were treated with chloroform to induce arrhythmias. Prophylaxis percentages of the flutter and fibrillation of ventricle for each dosage were calculated.

in vivo = conditions: mouse

| SMILES | LD50 (ddY strain male mice) [mg/kg] | ED40 [1] [mg/kg] | ED50 [1] [mg/kg] | ED20 [1] [mg/kg] | Therapeutic index [1] | LD50 (in vivo) [mg/kg] |
| --- | --- | --- | --- | --- | --- | --- |
| Cc1ccccc1NC(=O)CC12CCCN1CCC2 [Compound 1, N-(2-methylphenyl)-8-pyrrolizidineacetamide] | 385 | 100 | > 100 |  |  |  |
| Cc1ccc(NC(=O)CC23CCCN2CCC3)cc1 [Compound 2, N-(4-methylphenyl)-8-pyrrolizidineacetamide] | 413 |  |  | 100 |  |  |
| O=C(CC12CCCN1CCC2)Nc1ccccc1Cl [Compound 3, N-(2-chlorophenyl)-8-pyrrolizidineacetamide] | 347 |  | > 100 | 100 |  |  |
| O=C(CC12CCCN1CCC2)Nc1ccccc1Br [Compound 4, N-(2-bromophenyl)-8-pyrrolizidineacetamide] | 445 |  | 59 |  | 7.54 |  |
| COc1ccccc1NC(=O)CC12CCCN1CCC2 [Compound 5, N-(2-methoxyphynyl)-8-pyrrolizidineacetamide] | 381 | 100 | > 100 |  |  |  |
| COc1cccc(NC(=O)CC23CCCN2CCC3)c1 [Compound 6, N-(3-methoxyphenyl)-8-pyrrolizidineacetamide] | 417 | 100 | > 100 |  |  |  |
| COc1ccc(NC(=O)CC23CCCN2CCC3)cc1 [Compound 7, N-(4-methoxyphenyl)-8-pyrrolizidineacetamide] | 288 |  | 60 |  | 4.80 |  |
| Nc1ccccc1NC(=O)CC12CCCN1CCC2 [Compound 8, N-(2-aminophenyl)-8-pyrrolizidineacetamide] | 633 |  | 100 |  | 6.33 |  |
| Cc1cccc(NC(=O)CC23CCCN2CCC3)c1C [Compound 9, N-(2,3-dimetylphenyl)-8-pyrrolizidineacetamide] | 469 |  | 64 |  | 7.33 |  |
| Cc1ccc(NC(=O)CC23CCCN2CCC3)c(C)c1 [Compound 10, N-(2,4-dimethylphenyl)-8-pyrrolizidineacetamide] |  | 100 | > 100 |  |  | 398 |
| Cc1ccc(C)c(NC(=O)CC23CCCN2CCC3)c1 [Compound 11, N-(2,5-dimethylphenyl)-8-pyrrolizidineacetamide] | 400 |  | 72 |  | 5.56 |  |
| Cc1cccc(C)c1NC(=O)CC12CCCN1CCC2 [Compound 12, N-(2,6-dimethylphenyl)-8-pyrrolizidineacetaminde] |  |  | 24 |  |  |  |
| Cc1ccc(NC(=O)CC23CCCN2CCC3)cc1C [Compound 13, N-(3,4-dimethylphenyl)-8-pyrrolizidineacetamide] | 559 |  | 76 |  | 7.36 |  |
| Cc1cc(C)cc(NC(=O)CC23CCCN2CCC3)c1 [Compound 14, N-(3,5-dimethylphenyl)-8-pyrrolizidineacetamide] | 355 |  | 52 |  | 6.83 |  |
| COc1ccc(OC)c(NC(=O)CC23CCCN2CCC3)c1 [Compound 15, N-(2,5-dimethoxyphenyl)-8-pyrrolizidineacetamide] | 203 |  | 90 |  | 2.26 |  |
| O=C(CC12CCCN1CCC2)Nc1c(Cl)cccc1Cl [Compound 16, N-(2,6-dichlorophenyl)-8-pyrrolizidineacetamide] | 200 |  | > 100 | 100 |  |  |
| CCc1cccc(CC)c1NC(=O)CC12CCCN1CCC2 [Compound 17, N-(2,6-diethylphenyl)-8-pyrrolizidineacetamide] | 278 |  | 28 |  | 9.93 |  |
| Cc1cc(C)c(NC(=O)CC23CCCN2CCC3)c(C)c1 [Compound 18, N-(2,4,6-trimethylphenyl)-8-pyrrolizidineacetamide] | 309 |  | 34 |  | 9.09 |  |
